Assay results from ChEMBL document CHEMBL1134704, “Design, synthesis, and SAR of amino acid derivatives as factor Xa inhibitors” (Bioorg Med Chem Lett, 2001).

How the values were obtained:
[1] = molecular target: Prothrombin (Homo sapiens, UniProt P00734); test: In vitro inhibition of human thrombin.
[2] = molecular target: T1, Coagulation factor X (Homo sapiens, UniProt P00742); test: Inhibitory activity against Coagulation factor X was determined
[3] = molecular target: T1, Coagulation factor X; test: In vitro inhibition of human coagulation factor Xa.
[4] = molecular target: Serine protease 1 (Homo sapiens, UniProt P07477); test: In vitro inhibition of human trypsin.
Sequence of Serine protease 1 (P07477 whole entry): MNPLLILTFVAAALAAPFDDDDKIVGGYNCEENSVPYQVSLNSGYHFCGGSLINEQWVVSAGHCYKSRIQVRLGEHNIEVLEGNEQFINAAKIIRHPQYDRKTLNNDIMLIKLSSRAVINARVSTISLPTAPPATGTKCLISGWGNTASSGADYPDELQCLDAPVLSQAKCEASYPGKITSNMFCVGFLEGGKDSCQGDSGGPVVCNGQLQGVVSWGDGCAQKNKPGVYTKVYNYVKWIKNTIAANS

[5] = molecular target: Plasminogen (Homo sapiens, UniProt P00747); test: Inhibitory activity against plasmin
Sequence of Plasminogen (P00747 97-580 limits assumed): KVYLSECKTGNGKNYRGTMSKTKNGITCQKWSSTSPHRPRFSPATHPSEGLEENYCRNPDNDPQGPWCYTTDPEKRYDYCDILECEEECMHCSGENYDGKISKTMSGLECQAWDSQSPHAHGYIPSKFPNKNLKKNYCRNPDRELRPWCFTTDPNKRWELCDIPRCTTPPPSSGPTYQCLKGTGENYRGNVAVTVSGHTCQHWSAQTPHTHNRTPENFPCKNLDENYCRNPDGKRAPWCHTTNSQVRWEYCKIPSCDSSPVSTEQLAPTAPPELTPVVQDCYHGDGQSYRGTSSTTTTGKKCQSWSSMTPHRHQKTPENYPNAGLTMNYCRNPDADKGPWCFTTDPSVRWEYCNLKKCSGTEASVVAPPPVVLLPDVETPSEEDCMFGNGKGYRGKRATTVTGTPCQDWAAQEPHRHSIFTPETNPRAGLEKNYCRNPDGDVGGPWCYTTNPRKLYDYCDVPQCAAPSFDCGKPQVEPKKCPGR
Sequence of Plasminogen (P00747 581-810 limits assumed): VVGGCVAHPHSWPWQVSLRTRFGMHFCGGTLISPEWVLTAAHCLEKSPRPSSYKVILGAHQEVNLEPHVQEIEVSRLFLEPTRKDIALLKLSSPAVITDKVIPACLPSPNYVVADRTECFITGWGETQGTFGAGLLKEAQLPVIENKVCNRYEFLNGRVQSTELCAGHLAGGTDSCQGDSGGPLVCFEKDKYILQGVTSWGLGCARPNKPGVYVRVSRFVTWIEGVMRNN

[6] = molecular target: Tissue-type plasminogen activator (Homo sapiens, UniProt P00750); test: Inhibitory activity against Tissue plasminogen activator
Sequence of Tissue-type plasminogen activator (P00750 whole entry): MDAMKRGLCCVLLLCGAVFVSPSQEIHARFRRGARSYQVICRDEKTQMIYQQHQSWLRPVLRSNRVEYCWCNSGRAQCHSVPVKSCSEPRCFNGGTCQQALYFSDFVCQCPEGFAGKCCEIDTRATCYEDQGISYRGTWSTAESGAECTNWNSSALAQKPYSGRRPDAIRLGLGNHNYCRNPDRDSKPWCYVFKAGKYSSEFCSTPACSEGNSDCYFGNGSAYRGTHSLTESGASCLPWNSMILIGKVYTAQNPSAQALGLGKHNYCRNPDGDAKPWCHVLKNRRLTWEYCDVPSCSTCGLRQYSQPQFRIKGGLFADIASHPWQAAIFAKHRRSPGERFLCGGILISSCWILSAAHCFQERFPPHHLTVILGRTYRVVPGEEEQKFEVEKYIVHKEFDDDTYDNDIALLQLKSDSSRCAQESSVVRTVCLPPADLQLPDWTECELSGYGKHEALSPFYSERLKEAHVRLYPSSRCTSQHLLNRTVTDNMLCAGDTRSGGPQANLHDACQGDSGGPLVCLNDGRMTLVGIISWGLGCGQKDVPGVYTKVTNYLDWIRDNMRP

[7] = molecular target: Vitamin K-dependent protein C (Homo sapiens, UniProt P04070); test: Inhibitory activity against activated protein C (APC)
Sequence of Vitamin K-dependent protein C (P04070 43-197 limits assumed): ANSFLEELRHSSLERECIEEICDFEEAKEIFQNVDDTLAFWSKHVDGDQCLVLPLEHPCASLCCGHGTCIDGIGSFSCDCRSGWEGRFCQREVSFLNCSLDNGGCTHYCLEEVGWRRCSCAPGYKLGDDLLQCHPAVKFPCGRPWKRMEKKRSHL
Sequence of Vitamin K-dependent protein C (P04070 212-461 limits assumed): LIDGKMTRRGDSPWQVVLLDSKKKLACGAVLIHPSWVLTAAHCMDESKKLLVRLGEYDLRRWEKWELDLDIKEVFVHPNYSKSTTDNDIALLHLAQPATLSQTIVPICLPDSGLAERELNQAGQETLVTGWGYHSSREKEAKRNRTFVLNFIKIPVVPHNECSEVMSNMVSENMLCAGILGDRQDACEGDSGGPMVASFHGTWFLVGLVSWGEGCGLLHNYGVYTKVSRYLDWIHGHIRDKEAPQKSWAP

[8] = Oral bioavailability in rat; type: ADME, organism-based; conditions: in vivo

T1 sequence (P00742 41-179 limits assumed): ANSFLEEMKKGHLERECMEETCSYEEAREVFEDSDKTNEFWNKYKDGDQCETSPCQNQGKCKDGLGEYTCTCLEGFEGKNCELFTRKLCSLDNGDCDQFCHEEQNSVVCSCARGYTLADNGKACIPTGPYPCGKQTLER
T1 sequence (P00742 235-488 limits assumed): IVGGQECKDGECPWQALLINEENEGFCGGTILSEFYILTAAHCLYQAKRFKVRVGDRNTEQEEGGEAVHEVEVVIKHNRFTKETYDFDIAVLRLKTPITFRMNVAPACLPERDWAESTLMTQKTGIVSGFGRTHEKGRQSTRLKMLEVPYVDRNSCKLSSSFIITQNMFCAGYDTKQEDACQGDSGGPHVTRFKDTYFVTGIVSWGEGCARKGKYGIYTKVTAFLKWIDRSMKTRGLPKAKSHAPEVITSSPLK

IC50 [1] [µM]	IC50 [2] [µM]	IC50 [3] [µM]	IC50 [4] [µM]	IC50 [5] [µM]	IC50 [6] [µM]	IC50 [7] [µM]	bioavailability [8] [%]	Structure (SMILES)
> 10	2.77	–	–	–	–	–	–	Nc1nccc2ccc(C(=O)N3Cc4ccccc4C[C@H]3C(=O)Nc3ccc(-c4ccccc4S(N)(=O)=O)cc3)cc12
> 10	–	3.45	–	–	–	–	–	Nc1[nH]nc2ccc(C(=O)N[C@@H](C(=O)Nc3ccc(-c4ccccc4S(N)(=O)=O)cc3)c3ccccc3)cc12
> 10	–	0.0313	> 10	–	–	–	–	N=C(N)c1cccc(C(=O)N[C@H](Cc2ccccc2)C(=O)Nc2ccc(-c3ccccc3S(N)(=O)=O)cc2)c1
> 10	–	0.337	5.17	–	–	–	–	N=C(N)c1cccc(C(=O)N[C@H](C(=O)Nc2ccc(-c3ccccc3S(N)(=O)=O)cc2)c2ccccc2)c1
> 10	–	0.0348	> 10	–	–	–	–	CC(C)[C@@H](NC(=O)c1cccc(C(=N)N)c1)C(=O)Nc1ccc(-c2ccccc2S(N)(=O)=O)cc1
10	–	10	–	–	–	–	–	Nc1[nH]nc2ccc(C(=O)N[C@H](C(=O)Nc3ccc(-c4ccccc4S(N)(=O)=O)cc3)c3ccccc3)cc12
> 10	–	0.055	4.81	–	–	–	–	N=C(N)c1cccc(C(=O)N[C@@H](CC(=O)OC2CCCCC2)C(=O)Nc2ccc(-c3ccccc3S(N)(=O)=O)cc2)c1
> 10	–	0.0187	4.39	–	–	–	–	N=C(N)c1cccc(C(=O)N2Cc3ccccc3C[C@@H]2C(=O)Nc2ccc(-c3ccccc3S(N)(=O)=O)cc2)c1
> 10	–	0.676	> 10	–	–	–	–	CC(C)[C@H](NC(=O)c1cccc(C(=N)N)c1)C(=O)Nc1ccc(-c2ccccc2S(N)(=O)=O)cc1
> 10	–	1.44	> 10	–	–	–	–	N=C(N)c1cccc(C(=O)N[C@@H](CCC(=O)O)C(=O)Nc2ccc(-c3ccccc3S(N)(=O)=O)cc2)c1
> 10	–	0.0348	1.77	18.1	> 180	6.56	< 5	N=C(N)c1cccc(C(=O)N[C@@H](C(=O)Nc2ccc(-c3ccccc3S(N)(=O)=O)cc2)c2ccccc2)c1

The remaining lines, values behind:

Structure (SMILES)	IC50 [1] [µM]	IC50 [2] [µM]	IC50 [3] [µM]	IC50 [4] [µM]	IC50 [5] [µM]	IC50 [6] [µM]	IC50 [7] [µM]	bioavailability [8] [%]
N=C(N)c1cccc(C(=O)N2Cc3ccc(O)cc3C[C@@H]2C(=O)Nc2ccc(-c3ccccc3S(N)(=O)=O)cc2)c1	> 10	–	1.78	> 10	–	–	–	–
N=C(N)c1cccc(C(=O)N[C@@H](Cc2ccccc2)C(=O)Nc2ccc(-c3ccccc3S(N)(=O)=O)cc2)c1	> 10	–	0.762	> 10	–	–	–	–
Nc1noc2ccc(C(=O)N[C@@H](C(=O)Nc3ccc(-c4ccccc4S(N)(=O)=O)cc3)c3ccccc3)cc12	> 10	> 10	–	–	–	–	–	–
N=C(N)c1cccc(C(=O)N2CCC[C@H]2C(=O)Nc2ccc(-c3ccccc3S(N)(=O)=O)cc2)c1	> 10	–	> 10	> 10	–	–	–	–
N=C(N)c1cccc(C(=O)N[C@H](C(=O)Nc2ccc(-c3ccccc3S(N)(=O)=O)cc2)C2CCCCC2)c1	> 10	–	0.635	> 7.93	–	–	–	–
N=C(N)c1cccc(C(=O)NCC(=O)Nc2ccc(-c3ccccc3S(N)(=O)=O)cc2)c1	> 10	–	0.851	> 10	–	–	–	–
N=C(N)c1cccc(C(=O)N[C@@H](CCC(=O)OCc2ccccc2)C(=O)Nc2ccc(-c3ccccc3S(N)(=O)=O)cc2)c1	> 10	–	0.644	5.64	–	–	–	–
N=C(N)c1cccc(C(=O)N[C@@H](CCC(=O)OC2CCCCC2)C(=O)Nc2ccc(-c3ccccc3S(N)(=O)=O)cc2)c1	> 10	–	0.842	> 10	–	–	–	–
N=C(N)c1cccc(C(=O)N2Cc3ccccc3C[C@H]2C(=O)Nc2ccc(-c3ccccc3S(N)(=O)=O)cc2)c1	> 10	–	0.003	2.15	77.9	180	73	< 5
N=C(N)c1cccc(C(=O)N2Cc3ccc(O)cc3C[C@H]2C(=O)Nc2ccc(-c3ccccc3S(N)(=O)=O)cc2)c1	> 10	–	0.0967	0.888	–	–	–	–
